# Earlier results as cited in patent US7109337B2, “Pyrimidine derivatives for the treatment of abnormal cell growth” (Pfizer Inc, priority 2002, dated 2006).
# Assays:
# [1] = tested on: transplanted human mammary carcinoma that expresses epidermal growth factor receptor tyrosine kinase (EGFR); settings: athymic nude mice
# [2] = tested on: another carcinoma that does not express the EGF receptor
smiles,measurement,setting,value
O=CN/C=C/c1cc(O)ccc1O [erbstatin],growth of transplanted human mammary carcinoma,[1],selectively attenuates the growth
same,growth of another carcinoma,[2],without effect on the growth
